The text below walks through data of publication PMC7316994, “In Vitro Pharmacological Profile of a New Small Molecule Bradykinin B2 Receptor Antagonist” (Frontiers in Pharmacology, 2020).

For experiment [1], the target named is T1, endogenous human B2 receptor (Homo sapiens, UniProt P30411).
T1 construct: BK-induced contraction at endogenous human B2 receptor in the umbilical vein model; from tissue; host or cells: human umbilical vein rings (donor cords after elective caesarean section)
T1 sequence (P30411 1-391): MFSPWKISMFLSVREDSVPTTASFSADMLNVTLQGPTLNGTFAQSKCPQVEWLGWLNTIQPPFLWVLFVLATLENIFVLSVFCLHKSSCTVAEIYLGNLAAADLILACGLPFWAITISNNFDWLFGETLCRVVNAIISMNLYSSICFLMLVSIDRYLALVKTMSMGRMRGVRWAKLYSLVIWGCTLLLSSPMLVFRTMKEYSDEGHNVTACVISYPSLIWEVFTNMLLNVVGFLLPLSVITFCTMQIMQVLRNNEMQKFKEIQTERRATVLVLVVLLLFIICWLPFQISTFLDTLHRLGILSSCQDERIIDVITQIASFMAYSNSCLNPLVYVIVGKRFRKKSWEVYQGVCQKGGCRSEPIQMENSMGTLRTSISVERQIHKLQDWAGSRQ
Further details: method as in Marceau et al., 1994. The note with it: umbilical vein; ref Marceau et al., 1994; cited from earlier work.

Experiment [2] addresses T1, endogenous human B2 receptor. The experiment can be described thus: human isolated umbilical vein contractility assay, BK-induced contraction. The note with it: for Maximal BK-induced response in absolute force units ± S.E.M.: vehicle: Icatibant 1.90, Compound 1 […].
In a further experiment the target is T2, Neurokinin NK2 (Homo sapiens, UniProt P21452).
T2 construct: host or cells: CHO cells
T2 sequence (P21452 1-398): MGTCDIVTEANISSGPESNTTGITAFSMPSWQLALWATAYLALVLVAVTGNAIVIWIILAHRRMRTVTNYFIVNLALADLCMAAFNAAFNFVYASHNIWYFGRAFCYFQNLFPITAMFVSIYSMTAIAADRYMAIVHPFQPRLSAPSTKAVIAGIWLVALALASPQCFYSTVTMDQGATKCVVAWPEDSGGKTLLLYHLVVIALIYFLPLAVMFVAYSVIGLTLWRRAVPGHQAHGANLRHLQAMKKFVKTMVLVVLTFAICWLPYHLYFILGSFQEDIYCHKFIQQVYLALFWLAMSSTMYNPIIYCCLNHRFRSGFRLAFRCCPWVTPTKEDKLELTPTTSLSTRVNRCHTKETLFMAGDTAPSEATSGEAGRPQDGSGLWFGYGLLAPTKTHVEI
More on the design: method as in FDA Pharmacology Review Icatibant. The following applies: ref FDA Pharmacology Review Icatibant; read-out: IC50, binding to NK2 receptors; cited from earlier work.

A further experiment has as its target T3, rat B2 receptor (Rattus norvegicus, UniProt P25023).
T3 construct: host or cells: HEK293T cells
T3 sequence (P25023 1-396): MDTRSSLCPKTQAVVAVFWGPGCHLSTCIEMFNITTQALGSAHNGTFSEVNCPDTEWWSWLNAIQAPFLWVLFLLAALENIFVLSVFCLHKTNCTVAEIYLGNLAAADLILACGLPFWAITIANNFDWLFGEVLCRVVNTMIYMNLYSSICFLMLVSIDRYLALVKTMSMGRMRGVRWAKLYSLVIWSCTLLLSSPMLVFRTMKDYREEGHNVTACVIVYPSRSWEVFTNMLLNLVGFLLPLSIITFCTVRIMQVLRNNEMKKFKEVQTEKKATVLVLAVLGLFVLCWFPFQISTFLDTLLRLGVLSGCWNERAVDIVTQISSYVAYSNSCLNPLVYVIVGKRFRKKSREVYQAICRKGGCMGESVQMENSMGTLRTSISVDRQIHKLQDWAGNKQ
The experiment is described as follows: Ca^2+ mobilization assay, HEK293T cells. The experiment is classed as cell-based. The following applies: BK at EC80 4.32 nM.

Another experiment deals with T4, kinin B1 receptor (Homo sapiens, UniProt P46663).
T4 construct: during the 3-hour incubation period to upregulate the expression of B1; from tissue; host or cells: human umbilical vein rings pre-incubated with interleukin-1β and tumor necrosis factor-α
The experiment is described as follows: umbilical vein, Sar-[D-Phe^8]des-Arg^9-BK-induced contraction. The following applies: 1 μM.

Experiment [3] concerns the target T5, cynomolgus monkey B2 receptor (Macaca fascicularis, UniProt A0A7N9CWN6).
T5 sequence (A0A7N9CWN6 1-391): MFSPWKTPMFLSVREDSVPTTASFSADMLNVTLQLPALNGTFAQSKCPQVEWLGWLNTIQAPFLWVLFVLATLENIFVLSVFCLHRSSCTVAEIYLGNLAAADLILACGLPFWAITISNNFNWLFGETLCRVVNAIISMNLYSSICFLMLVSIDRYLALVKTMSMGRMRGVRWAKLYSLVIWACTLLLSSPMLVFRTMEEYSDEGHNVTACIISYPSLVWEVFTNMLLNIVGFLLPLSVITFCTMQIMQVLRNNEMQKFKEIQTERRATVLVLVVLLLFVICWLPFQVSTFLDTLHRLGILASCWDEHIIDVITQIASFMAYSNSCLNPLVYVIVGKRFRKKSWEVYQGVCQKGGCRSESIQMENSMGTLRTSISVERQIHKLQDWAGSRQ
The experiment can be described thus: cell-based.

Another experiment addresses T6, mouse B2 receptor (Mus musculus, UniProt P32299).
T6 construct: host or cells: HEK293T cells
T6 sequence (P32299 1-392): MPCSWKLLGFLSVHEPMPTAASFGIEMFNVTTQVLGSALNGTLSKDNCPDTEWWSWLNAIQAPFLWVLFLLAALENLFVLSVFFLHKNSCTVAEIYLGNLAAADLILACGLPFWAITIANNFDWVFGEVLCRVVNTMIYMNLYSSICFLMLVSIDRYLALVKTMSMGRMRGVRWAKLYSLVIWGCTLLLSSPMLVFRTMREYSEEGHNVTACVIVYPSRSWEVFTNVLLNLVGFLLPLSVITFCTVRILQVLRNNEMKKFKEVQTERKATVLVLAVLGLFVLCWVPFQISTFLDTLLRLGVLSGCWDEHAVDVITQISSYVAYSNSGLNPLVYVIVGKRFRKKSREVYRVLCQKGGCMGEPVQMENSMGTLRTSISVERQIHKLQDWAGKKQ
The experiment is described as follows: Ca^2+ mobilization assay, HEK293T cells. The experiment is classed as cell-based. The following applies: BK at EC80 0.53 nM, n=1.

A further experiment concerns the target T7, dog B2 receptor (Canis lupus familiaris, UniProt Q9BDQ4).
T7 sequence (Q9BDQ4 1-392): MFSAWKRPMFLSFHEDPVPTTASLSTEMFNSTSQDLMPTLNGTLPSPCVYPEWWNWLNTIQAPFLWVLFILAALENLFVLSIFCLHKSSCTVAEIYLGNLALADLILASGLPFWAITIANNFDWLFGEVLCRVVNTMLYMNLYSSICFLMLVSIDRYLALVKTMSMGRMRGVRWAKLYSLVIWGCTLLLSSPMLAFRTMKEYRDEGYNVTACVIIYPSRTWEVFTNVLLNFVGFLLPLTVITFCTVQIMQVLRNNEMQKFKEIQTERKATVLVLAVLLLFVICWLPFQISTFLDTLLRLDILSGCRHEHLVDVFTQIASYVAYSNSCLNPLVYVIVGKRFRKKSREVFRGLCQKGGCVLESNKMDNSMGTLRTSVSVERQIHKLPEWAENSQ
The experiment can be described thus: Ca^2+ mobilization assay, HEK293T cells. The experiment is classed as cell-based. The following applies: Dog; BK at EC80 1.86 nM; n=1; read-out: IC50 (nM) Mean.

Where “and” joins values, the source holds several entries; their conditions need not be identical. Equal values may be shown once.

T4 sequence (P46663 whole entry): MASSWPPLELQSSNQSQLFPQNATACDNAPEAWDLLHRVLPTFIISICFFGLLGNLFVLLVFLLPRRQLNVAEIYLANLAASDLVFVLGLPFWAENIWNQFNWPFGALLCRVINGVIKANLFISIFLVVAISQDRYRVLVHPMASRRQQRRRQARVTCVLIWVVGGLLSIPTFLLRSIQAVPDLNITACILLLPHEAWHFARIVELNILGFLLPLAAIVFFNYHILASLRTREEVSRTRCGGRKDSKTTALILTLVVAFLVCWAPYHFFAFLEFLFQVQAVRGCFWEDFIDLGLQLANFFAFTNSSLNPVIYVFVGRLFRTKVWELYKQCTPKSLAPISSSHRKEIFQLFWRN

Usually IC50 stands for the concentration that inhibits the measured activity by half. `NC(N)=NCCC[C@@H](N)C(=O)N[C@@H](CCCN=C(N)N)C(=O)N1CCC[C@H]1C(=O)N1C[C@H](O)C[C@H]1C(=O)NCC(=O)N[C@@H](Cc1cccs1)C(=O)N[C@@H](CO)C(=O)N1Cc2ccccc2C[C@@H]1C(=O)N1[C@H](C(=O)N[C@@H](CCCN=C(N)N)C(=O)O)C[C@@H]2CCCC[C@@H]21` [icatibant, reference compound]: the “pA2, previously reported value” in experiment [1] was 8.2. For the same compound, the “type of antagonism of BK” value in experiment [2] (BK concentration-effect curves, Emax) is “competitive (surmountable) antagonist”. For the same compound, in experiment [2] (Schild regression, Pharm/PCS, ± S.E.M. where given), the Schild plot slope is -0.85 ± 0.16 and −0.85. Further, the “Maximal BK-induced response in absolute force units ± S.E.M.” value in experiment [2] (antagonist 10 nM, Compound 2 2.25, Compound 3 1.52) is on record as 1.47 ± 0.19 grams-weight; in experiment [2] (antagonist 100 nM, Compound 2 2.25, Compound 3 1.52) it was 1.50 ± 0.27 grams-weight; in experiment [2] (antagonist 1 μM, Compound 2 2.25, Compound 3 1.52), 1.40 ± 0.22 grams-weight; in experiment [2] (antagonist 10 μM, Compound 2 2.25) it was 1.27 ± 0.17 grams-weight. For the same compound, the “pA2 value converted into nM” value in experiment [2] (potency from pA2) was 8.71 nM and 8.7 nM. The IC50 on Neurokinin NK2 is 0.42 µM; against rat B2 receptor, 37.4 nM; in experiment [3], 0.0171 µM; against mouse B2 receptor it was 15.5 nM; on dog B2 receptor, 87.1 nM. Besides, at kinin B1 receptor, the “effect on contraction by B1 receptor agonist Sar-[D-Phe^8]des-Arg^9-BK” value is given as “failed to antagonize”. The Kb in experiment [3] is 0.00406 µM.
